{
  "source": "patent US7973219B2",
  "about": "“Method for producing transgenic plants resistant to weed control compounds which disrupt the porphyrin pathways of plants” (Sumitomo Chemical Company, Limited, priority 1998, dated 2011)",
  "type_in_all_cases": "cell-based, Escherichia coli",
  "key": {"[1]": {"system": "E. coli BT3/pACYCSP+pTVGMP strain", "assay": "Growth of E. coli BT3/pACYCSP+pTVGMP (variant soybean PPO) with herbicidal compound", "conditions": "18 hours culture, Table 7", "source_text": "(§1) According to the description of Gibson, L. C. D. et al., Proc. Natl. Acad. Sci. USA, 92; p 1941 (1995), the DNA fragment containing bchH gene prepared in Example 1 was digested with the restriction enzymes NdeI and BglII. The resultant DNA fragment was inserted between NdeI restriction site and BamHI restriction site of expression vector pET11a (manufactured by Stratagene) to obtain plasmid pETBCH (FIG. 1). This plasmid pETBCH was introduced into E. coli BL21(DE3) strain competent cells (manufactured by Stratagene) according to the manual attached to the competent cells to obtain E. coli BL21(DE3)/pETBCH strain. The strain was inoculated into 1.5 ml LB liquid culture medium (1% tryptone, 0.5% yeast extract, 0.5% NaCl) containing 100 μg/ml ampicillin in a tube (14×10 mm), and the tube was covered with aluminum foil (hereinafter referred to as dark conditions), cultured with shaking at 37° C. under light of fluorescent lamp (about 8000 lux). When the absorbance at 600 nm of the liquid culture medium became about 0.6, isopropyl β-D-thiogalactopyranoside (IPTG) was added to the liquid culture medium so that the final concentration was 0.4 mM, and the culture was continued for about additional 20 hours. […] In contrast to this, when E. coli BL21(DE3)/pETBCH strain was cultured according to the same manner (with IPTG) except that the tube was not covered with aluminum foil (hereinafter referred to as light conditions), E. coli grew and turned red as above.\nPlasmids pTVGMP and pTV118N prepared in Example 11 were introduced into E. coli BT3/pACYCSP strain prepared in Example 3 respectively according to the method described in Flanahan, D. J., Mol. Biol., 166; p 557 (1983). E. coli BT3/pACYCSP+pTVGMP strain bearing plasmids pACYCSP and pTVGMP, and E. coli BT3/pACYCSP+pTV118N strain bearing plasmids pACYCSP and pTV118N were obtained by culturing the above strains in YPT medium containing 100 μg/ml ampicillin, 15 μg/ml chloramphenicol and 10 μg/ml kanamycin.\n(§2) These E. coli strains were inoculated into YPT medium containing 10 or 1 ppm of PPO inhibitory-type herbicidal compound represented by Structure 8, 100 (ig/ml ampicillin, 15 μg/ml chloramphenicol, 10 μg/ml kanamycin, 10 μg/ml hemin and 50 μg/ml aminolevulinic acid, cultured under dark conditions or light conditions according to the same manner as in Example 2. Then, 18 hours after initiation of culture, the absorbance of liquid culture medium was measured at 600 nm. By taking the absorbance of the medium without the herbicidal compound as 1, the relative value of the absorbance of the medium containing the herbicidal compound was calculated."}, "[2]": {"system": "E. coli BT3/pACYCSP+pTVHVF1 strain", "assay": "Growth of E. coli BT3/pACYCSP+pTVHVF1 (variant barley ferrochelatase) with herbicidal compound", "conditions": "18 hours culture, Table 11", "source_text": "as §1\nA plasmid bearing barley ferrochelatase gene was prepared by the method described in Miyamoto. K. et al. Plant Physiol. 105; p 769 (1994). The resultant plasmid was digested with restriction enzymes NspI and EcoRI to obtain the DNA fragment containing the gene encoding barley ferrochelatase whose signal sequence had been deleted (hereinafter referred to as the variant barley ferrochelatase). This DNA fragment was inserted between SphI restriction site and EcoRI restriction site of plasmid pTV119N (manufactured by Takara Shuzo Co., Ltd.) to construct plasmid pTVHVF1 (FIG. 12). […]\nas §2, with “ppm of the PPO inhibitory-type” for “ppm of PPO inhibitory-type”, “8, 100 μg/ml ampicillin, 15” for “8, 100 (ig/ml ampicillin, 15”"}, "[3]": {"system": "E. coli BT3/pACYCSP+pTVCSF strain", "assay": "Growth of E. coli BT3/pACYCSP+pTVCSF (variant cucumber ferrochelatase) with herbicidal compound", "conditions": "18 hours culture, Table 13", "source_text": "as §1\nPCR was carried out by using cucumber ferrochelatase cDNA clone isolated by the method described in Miyamoto, K. et al. Plant Physiol., 105; p 769 (1994) as a template, an oligonucleotide composed of the nucleotide sequence of SEQ ID NO: 21 and an oligonucleotide composed of the nucleotide sequence of SEQ ID NO: 22 as primers to amplify the DNA fragment encoding cucumber ferrochelatase whose signal sequence had been deleted (hereinafter referred to as the variant cucumber ferrochelatase). […]\nas §2, with “ppm of the PPO inhibitory-type” for “ppm of PPO inhibitory-type”, “8, 100 μg/ml ampicillin, 15” for “8, 100 (ig/ml ampicillin, 15”"}},
  "data": [
    {"compound": "C#CCOc1cc(N2C(=O)C3=C(CCCC3)C2=O)c(F)cc1Cl", "note": "[Structure 8]", "values": [
      {"measurement": "Relative absorbance", "setting": "[1]; in the dark, 1 ppm", "result": 0.94},
      {"measurement": "Relative absorbance", "setting": "[1]; in the dark, 10 ppm", "result": 0.91},
      {"measurement": "Relative absorbance", "setting": "[1]; in the light, 1 ppm", "result": 0.85},
      {"measurement": "Relative absorbance", "setting": "[1]; in the light, 10 ppm", "result": 0.33},
      {"measurement": "Relative absorbance", "setting": "[2]; in the dark, 1 ppm", "result": 0.96},
      {"measurement": "Relative absorbance", "setting": "[2]; in the dark, 10 ppm", "result": 0.94},
      {"measurement": "Relative absorbance", "setting": "[2]; in the light, 1 ppm", "result": 0.94},
      {"measurement": "Relative absorbance", "setting": "[2]; in the light, 10 ppm", "result": 0.39},
      {"measurement": "Relative absorbance", "setting": "[3]; in the dark, 1 ppm", "result": 0.92},
      {"measurement": "Relative absorbance", "setting": "[3]; in the dark, 10 ppm", "result": 0.89},
      {"measurement": "Relative absorbance", "setting": "[3]; in the light, 1 ppm", "result": 0.78},
      {"measurement": "Relative absorbance", "setting": "[3]; in the light, 10 ppm", "result": 0.73}
    ]}
  ]
}
